Laboratory results reported in patent US9682985B2, “(Indazol-4-yl) hexahydropyrrolopyrrolones and methods of use” (AbbVie Inc., priority 2015, dated 2017).

Key:
[1] = system: MIA-induced osteoarthritic pain in rats; assay: Osteoarthritic (OA) pain induced by sodium monoiodoacetate (MIA), hind limb grip force; format: in vivo; conditions: rat MIA-OA, 20 days after MIA
Method: Osteoarthritic (OA) Pain Induced by Sodium Monoiodoacetate (MIA)
Pain behavior was assessed by measurement of hind limb grip force (GF) in adult osteoarthritic rats. Male Sprague Dawley rats, obtained from Charles River Laboratories, (Wilmington, Mass.), weighing 150-175 g, were injected in the unilateral knee join with a single intra-articular injection of sodium monoiodoacetate (MIA, 3 mg/rat). All rats were tested at 20 days following MIA injection. A behavioral measure of activity-induced pain was carried out. Measurements of the peak hind limb grip force were conducted by recording the maximum compressive force (CFmax), in grams of force, exerted on a hind limb strain gauge setup, in a commercially available grip force measurement system (Columbus Instruments, Columbus, Ohio).
During testing, each rat was gently restrained by grasping it around its rib cage and then allowed to grasp the wire mesh frame attached to the strain gauge. The experimenter then moved the animal in a rostral-to-caudal direction until the grip was broken. Each rat was sequentially tested twice at an approximately 2-3 minute interval to obtain a raw mean grip force (CFmax). This raw mean grip force data was in turn converted to a maximum hindlimb cumulative compressive force (CFmax), as the grams of force/kg of body weight, for each animal.
For evaluating the compound effects, the hind limb grip force was conducted 20 days following the intra-articular injection of MIA. A group of age-matched naïve (not injected with MIA) animals was added as a comparator to the drug-dosed groups. The vehicle control response for each group of MIA-treated animals was defined as the 0% response (0% effect), whereas the naïve control group was defined as the normal response and as 100% effect. The % effect for each dose group was expressed as % return of response to normalcy, compared to the naïve group. A percent maximal possible effect (% MPE) of testing compound was calculated according to the formula: (Treatment CFmax Vehicle CFmax)/Vehicle CFmax]×100). Higher % effect numbers indicate increased relief from the pain in the model, with 100% indicating a return to the level of response seen in normal (non-osteoarthritic) animals. All experiments evaluating drug effects in this model were conducted in a randomized blinded fashion.
The animals were housed in Association for Assessment and Accreditation of Laboratory Animal Care (AAALAC) approved facilities at AbbVie Inc. in a temperature-regulated environment under a controlled 12-hour light-dark cycle, with lights on at 6:00 a.m. Food and water were available ad libitum at all times except during testing. All testing was done following procedures outlined in protocols approved by AbbVie Inc.'s Institutional Animal Care and Use Committee.

recombinant human Nav1.7 = molecular target: T1, recombinant human Nav1.7 (Homo sapiens, UniProt Q15858); assay: FRET-based membrane potential assay, Nav1.7; format: cell-based; conditions: HEK293 cells expressing recombinant human Nav1.7; veratridine + scorpion venom depolarization
T1 construct: expressed in transfected cells; host or cells: HEK293
T1 sequence (Q15858 whole entry): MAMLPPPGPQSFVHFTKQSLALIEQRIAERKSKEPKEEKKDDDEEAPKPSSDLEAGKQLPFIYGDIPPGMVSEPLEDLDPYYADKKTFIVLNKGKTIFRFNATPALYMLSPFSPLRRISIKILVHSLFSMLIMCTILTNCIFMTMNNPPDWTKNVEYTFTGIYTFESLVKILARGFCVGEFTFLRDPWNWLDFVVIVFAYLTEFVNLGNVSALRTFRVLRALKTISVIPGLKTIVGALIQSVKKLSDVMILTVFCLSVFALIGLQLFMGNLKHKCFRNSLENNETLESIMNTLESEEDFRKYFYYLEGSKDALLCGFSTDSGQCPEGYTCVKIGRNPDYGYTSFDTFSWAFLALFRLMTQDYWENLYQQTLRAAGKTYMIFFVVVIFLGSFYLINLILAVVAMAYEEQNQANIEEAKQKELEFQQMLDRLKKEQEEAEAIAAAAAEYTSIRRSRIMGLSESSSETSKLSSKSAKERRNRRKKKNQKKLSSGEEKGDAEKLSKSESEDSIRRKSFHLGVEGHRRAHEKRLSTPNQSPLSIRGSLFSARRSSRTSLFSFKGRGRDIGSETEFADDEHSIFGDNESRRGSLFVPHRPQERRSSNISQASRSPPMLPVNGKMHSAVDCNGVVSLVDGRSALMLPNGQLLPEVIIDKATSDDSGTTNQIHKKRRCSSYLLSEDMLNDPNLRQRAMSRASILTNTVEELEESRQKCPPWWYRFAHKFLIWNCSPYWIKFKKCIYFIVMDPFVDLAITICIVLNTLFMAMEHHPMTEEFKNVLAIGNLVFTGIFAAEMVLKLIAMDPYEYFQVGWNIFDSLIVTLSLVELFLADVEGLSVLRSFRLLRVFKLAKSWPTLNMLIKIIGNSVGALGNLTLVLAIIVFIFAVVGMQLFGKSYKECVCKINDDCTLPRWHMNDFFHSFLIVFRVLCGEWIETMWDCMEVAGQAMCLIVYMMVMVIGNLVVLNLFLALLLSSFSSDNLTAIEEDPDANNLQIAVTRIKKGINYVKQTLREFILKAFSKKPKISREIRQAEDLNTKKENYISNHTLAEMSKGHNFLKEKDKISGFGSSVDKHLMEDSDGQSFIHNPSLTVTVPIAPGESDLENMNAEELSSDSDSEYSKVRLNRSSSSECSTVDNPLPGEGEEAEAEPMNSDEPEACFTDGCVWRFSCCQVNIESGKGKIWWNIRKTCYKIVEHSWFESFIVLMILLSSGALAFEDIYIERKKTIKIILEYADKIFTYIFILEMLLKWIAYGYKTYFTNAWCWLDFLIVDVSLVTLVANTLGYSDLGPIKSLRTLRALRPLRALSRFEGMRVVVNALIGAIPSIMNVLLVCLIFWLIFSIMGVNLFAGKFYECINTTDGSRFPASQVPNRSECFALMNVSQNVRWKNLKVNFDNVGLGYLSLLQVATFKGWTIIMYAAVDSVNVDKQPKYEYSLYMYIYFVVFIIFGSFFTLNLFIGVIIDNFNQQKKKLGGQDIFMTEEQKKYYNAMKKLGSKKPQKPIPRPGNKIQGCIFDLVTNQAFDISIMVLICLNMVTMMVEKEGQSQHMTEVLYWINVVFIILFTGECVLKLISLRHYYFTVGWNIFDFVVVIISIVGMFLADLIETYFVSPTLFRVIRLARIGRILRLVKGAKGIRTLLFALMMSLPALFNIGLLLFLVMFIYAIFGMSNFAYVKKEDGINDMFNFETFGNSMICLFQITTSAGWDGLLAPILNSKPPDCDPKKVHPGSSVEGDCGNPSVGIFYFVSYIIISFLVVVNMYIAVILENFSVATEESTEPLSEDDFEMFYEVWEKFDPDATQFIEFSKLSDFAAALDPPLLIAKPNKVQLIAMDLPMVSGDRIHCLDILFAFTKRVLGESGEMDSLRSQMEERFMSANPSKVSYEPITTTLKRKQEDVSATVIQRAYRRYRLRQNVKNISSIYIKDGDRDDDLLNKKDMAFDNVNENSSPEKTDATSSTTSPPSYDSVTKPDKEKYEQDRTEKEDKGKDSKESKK

[2] = system: SNL-induced neuropathic pain in rats; assay: Rat spinal nerve ligation (SNL) model of neuropathic pain, paw withdrawal threshold; format: in vivo; conditions: SNL dose 100 mg/kg
From the text: Rat Spinal Nerve Ligation (SNL) Model of Neuropathic Pain.
A model of spinal nerve ligation-induced (SNL model) neuropathic pain as originally described by Kim and Chung (Kim, S. H. and J. M. Chung, 1992, Pain 50, 355) was used to test a compound of the present application. The male Sprague Dawley rats (Charles River Laboratories, Wilmington, Mass.), weighing 150-175 g at the time of surgery, were placed under isoflurane anesthesia and a 1.5 cm incision was made dorsal to the lumbosacral plexus. The paraspinal muscles (left side) were separated from the spinous processes, the left L5 and L6 spinal nerves isolated, and tightly ligated with 5-0 silk suture distal to the dorsal root ganglion. Care was taken to avoid ligating the L4 spinal nerve. Following spinal nerve ligation, a minimum of 7 days of recovery and no more than 3 weeks was allowed prior to the behavioral testing (mechanical sensitivity). Only rats with threshold scores ≦4.5 g were considered allodynic and utilized in pharmacological experiments.
Mechanical sensitivity was measured using calibrated von Frey filaments (Stoelting, Wood Dale, Ill.). Paw withdrawal threshold (PWT) was determined by using the Dixon's up-down method (Dixon, W. J., 1980, Ann. Rev. Pharmacol. Toxicol., 20, 441). Rats were placed into inverted individual plastic containers (20×12.5×20 cm) on top of a suspended wire mesh with a 1 cm^2 grid to provide access to the ventral side of the hind paws, and acclimated to the test chambers for 20 minutes. The von Frey filaments were presented perpendicularly to the plantar surface of the selected hind paw, and then held in this position for approximately 8 seconds with enough force to cause a slight bend in the filament. […] A 50% withdrawal threshold was determined using an up-down procedure (Dixon, 1980). A percent maximal possible effect (% MPE) of testing compound was calculated according to the formula: (Log [compound−treated threshold]−Log [vehicle−treated threshold])/(Log [maximum threshold]−Log [vehicle-treated threshold])×100%, where the maximum threshold was equal to 15 g. […]

hERG channel (Kv11.1) = molecular target: T2, hERG channel (Kv11.1) (Homo sapiens, UniProt Q12809); assay: hERG QPatch screening protocol (hERG current block); format: cell-based; conditions: HEK-293 cells stably transfected with hERG; tail current; room temperature
T2 construct: W. January (Wisconsin Alumni Research Foundation); host or cells: HEK-293
T2 sequence (Q12809 whole entry): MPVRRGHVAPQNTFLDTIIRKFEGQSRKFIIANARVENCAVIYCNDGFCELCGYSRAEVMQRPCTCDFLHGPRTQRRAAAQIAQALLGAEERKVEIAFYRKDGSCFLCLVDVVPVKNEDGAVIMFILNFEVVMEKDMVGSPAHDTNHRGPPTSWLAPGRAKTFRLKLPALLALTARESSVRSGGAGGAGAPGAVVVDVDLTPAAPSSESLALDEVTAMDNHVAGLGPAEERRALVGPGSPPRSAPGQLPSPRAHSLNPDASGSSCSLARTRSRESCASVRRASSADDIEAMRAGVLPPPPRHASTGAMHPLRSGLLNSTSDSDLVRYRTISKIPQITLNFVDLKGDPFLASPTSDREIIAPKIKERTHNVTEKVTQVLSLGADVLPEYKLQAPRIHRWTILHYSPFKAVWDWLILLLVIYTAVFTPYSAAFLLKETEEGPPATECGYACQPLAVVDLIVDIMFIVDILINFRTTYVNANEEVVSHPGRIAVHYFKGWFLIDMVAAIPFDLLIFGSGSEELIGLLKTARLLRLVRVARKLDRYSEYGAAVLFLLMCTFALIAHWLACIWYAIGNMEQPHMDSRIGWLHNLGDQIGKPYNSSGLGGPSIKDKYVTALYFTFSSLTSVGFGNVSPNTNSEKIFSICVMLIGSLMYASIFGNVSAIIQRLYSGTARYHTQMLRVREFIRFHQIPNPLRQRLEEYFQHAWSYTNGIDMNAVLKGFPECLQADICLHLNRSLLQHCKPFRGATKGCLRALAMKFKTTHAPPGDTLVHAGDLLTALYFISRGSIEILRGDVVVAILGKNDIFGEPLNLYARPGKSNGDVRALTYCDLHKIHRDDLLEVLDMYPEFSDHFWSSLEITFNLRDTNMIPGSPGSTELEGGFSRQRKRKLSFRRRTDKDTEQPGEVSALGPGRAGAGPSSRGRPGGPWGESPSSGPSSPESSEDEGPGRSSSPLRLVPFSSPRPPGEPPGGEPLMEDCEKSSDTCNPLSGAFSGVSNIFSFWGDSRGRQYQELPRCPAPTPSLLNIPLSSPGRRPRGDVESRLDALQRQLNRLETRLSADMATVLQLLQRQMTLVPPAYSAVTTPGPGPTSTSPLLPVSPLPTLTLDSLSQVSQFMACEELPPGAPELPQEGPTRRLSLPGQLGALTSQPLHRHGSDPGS
Method: hERG QPatch Screening Protocol
Solutions and Compound Plates:
The bath solution contained (in mM): 140 NaCl, 5 KCl, 1 MgCl2, 2 CaCl2, 5 glucose, 20 HEPES, pH=7.4. The internal solution contained (in mM): 125 K-aspartate, 20 KCl, 10 EGTA, 5 MgATP, 1 MgCl2, 5 HEPES, pH=7.3.
Compound plates were prepared with an acoustic liquid handler (Echo® 550, Labcyte), using 384-well source plates and 96-well destination plates. Compounds were delivered to the destination plates as 300 nL spots in half-log increments (1, 3, 10 and 30 mM), dissolved in dimethyl sulfoxide. Plates were solvated with bath solution (300 μL) to final concentrations (1, 3, 10 and 30 μM; 0.1% dimethyl sulfoxide) and added to the QPatch workstation.
Cells and Cell Preparation:
Human embryonic kidney (HEK-293) cells, stably transfected with the hERG channel, were obtained from Dr. C. W. January (Wisconsin Alumni Research Foundation). Cells were initially maintained at 37° C. (5% CO2 atmosphere) in MEM supplemented media. Cells were cryo-preserved in 10% dimethyl sulfoxide, 90% fetal bovine serum at 10 M cells/mL. For electrophysiological studies, cells were thawed, resuspended in media at 1.0-1.5 M cells/mL and placed on the QPatch workstation.
QPatch Electrophysiology Workstation and Experimental Protocol:
Currents were recorded using QPatch HT (Sophion), an automated planar patch-clamp system. The QPatch uses forty-eight amplifiers and a 48-chamber QPlate positioned directly on top of the headstage. To obtain high resistant seals, cells are added to each chamber and allowed to settle for 10 seconds. Negative pressure is then applied to promote cell delivery to the patch chip openings on the chamber bottom. After formation of GΩ seals, negative pressure ramps are applied to obtain intracellular access. Access resistance was initially optimized by additional pressure ramps to assure the intracellular access was adequate for voltage clamp experiments (targeted access resistance <10 MΩ). Whole-cell compensation and series resistance compensation were used at 60% (both predicted and corrected). Experiments using QPatch were conducted at room temperature.
A single application of each concentration was applied to cells. During a five-minute wash-in period, a four-second depolarizing pulse to +20 mV, followed by a five-second repolarizing pulse to −50 mV was applied once every 15 seconds from a holding potential of −80 mV. Cells were exposed to four ascending concentrations of drug in half-log intervals.
Evaluation of hERG Current Block:
hERG tail current was measured as the difference in amplitude between a […] and the end of a five-second test pulse to −50 mV, preceded by a four-second pulse to +20 mV. The hERG IC50 values for compounds were determined from tail current analysis. The IC50 was calculated with a logistic fitting routine using the following equation: y=[(A1−A2)/(1+(x/IC50))^p]A2, where A1=initial×value, A2=final×value and p=power.

recombinant human Nav1.8 = molecular target: T3, recombinant human Nav1.8 (Homo sapiens, UniProt Q9Y5Y9); assay: FRET-based membrane potential assay, Nav1.8; format: cell-based; conditions: HEK293 cells expressing recombinant human Nav1.8; veratridine + scorpion venom depolarization
T3 construct: host or cells: HEK293
T3 sequence (Q9Y5Y9 whole entry): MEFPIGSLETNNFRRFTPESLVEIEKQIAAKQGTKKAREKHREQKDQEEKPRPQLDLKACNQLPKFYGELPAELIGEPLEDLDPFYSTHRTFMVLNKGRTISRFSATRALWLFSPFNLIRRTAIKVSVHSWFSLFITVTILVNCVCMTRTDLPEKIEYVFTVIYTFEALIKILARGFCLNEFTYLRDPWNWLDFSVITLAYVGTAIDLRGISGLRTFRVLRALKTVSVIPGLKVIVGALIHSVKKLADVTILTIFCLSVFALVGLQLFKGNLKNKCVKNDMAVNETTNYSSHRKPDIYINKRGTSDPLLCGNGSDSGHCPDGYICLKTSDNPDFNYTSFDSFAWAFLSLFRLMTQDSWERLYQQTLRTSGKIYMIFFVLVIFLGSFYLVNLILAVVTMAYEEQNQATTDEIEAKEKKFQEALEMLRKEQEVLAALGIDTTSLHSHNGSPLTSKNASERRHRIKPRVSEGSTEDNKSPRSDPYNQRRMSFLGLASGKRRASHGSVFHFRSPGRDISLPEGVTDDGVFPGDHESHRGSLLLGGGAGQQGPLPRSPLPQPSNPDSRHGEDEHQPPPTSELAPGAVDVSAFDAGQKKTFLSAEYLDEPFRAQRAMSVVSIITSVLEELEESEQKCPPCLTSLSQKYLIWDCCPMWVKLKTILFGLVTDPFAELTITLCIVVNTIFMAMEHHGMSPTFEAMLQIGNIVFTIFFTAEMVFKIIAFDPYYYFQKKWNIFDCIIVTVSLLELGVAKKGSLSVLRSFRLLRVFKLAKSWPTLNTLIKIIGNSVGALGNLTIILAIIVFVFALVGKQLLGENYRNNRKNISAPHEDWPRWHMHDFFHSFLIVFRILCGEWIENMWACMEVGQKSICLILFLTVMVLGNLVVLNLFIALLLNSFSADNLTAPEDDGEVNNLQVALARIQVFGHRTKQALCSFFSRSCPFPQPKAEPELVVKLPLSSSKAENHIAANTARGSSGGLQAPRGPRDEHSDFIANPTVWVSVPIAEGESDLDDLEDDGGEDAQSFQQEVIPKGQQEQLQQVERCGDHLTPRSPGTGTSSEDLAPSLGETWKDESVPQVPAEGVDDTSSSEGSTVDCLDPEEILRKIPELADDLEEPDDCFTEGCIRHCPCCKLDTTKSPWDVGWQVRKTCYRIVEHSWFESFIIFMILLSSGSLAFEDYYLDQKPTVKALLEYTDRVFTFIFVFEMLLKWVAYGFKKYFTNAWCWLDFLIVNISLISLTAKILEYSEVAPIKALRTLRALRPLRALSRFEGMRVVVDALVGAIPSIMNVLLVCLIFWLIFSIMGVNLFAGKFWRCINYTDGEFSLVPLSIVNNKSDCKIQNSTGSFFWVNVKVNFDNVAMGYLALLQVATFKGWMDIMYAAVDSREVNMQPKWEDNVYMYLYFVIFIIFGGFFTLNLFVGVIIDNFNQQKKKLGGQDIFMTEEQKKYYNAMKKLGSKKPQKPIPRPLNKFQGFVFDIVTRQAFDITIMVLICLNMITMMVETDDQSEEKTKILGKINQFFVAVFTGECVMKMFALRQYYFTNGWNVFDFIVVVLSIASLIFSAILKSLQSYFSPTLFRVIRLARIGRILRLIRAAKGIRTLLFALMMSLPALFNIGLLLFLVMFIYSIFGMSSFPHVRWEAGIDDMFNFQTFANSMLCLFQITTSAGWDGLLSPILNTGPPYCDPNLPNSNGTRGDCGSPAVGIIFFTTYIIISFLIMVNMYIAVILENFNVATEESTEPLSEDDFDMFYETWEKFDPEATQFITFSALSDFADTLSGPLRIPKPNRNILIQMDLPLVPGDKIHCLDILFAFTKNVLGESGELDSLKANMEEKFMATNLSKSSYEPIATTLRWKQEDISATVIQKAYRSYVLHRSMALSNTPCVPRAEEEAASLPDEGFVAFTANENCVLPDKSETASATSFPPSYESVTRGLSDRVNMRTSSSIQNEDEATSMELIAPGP

SMILES | OA MPE ([1]; OA dose 10 mg/kg) | IC50 (recombinant human Nav1.7) | SNL MPE [2] | IC50 (hERG channel (Kv11.1)) | OA MPE ([1]; OA dose 30 mg/kg) | IC50 (recombinant human Nav1.8)
O=C(CC1CCCO1)N1C[C@@H]2CN(c3cccc4c3cnn4-c3ccccc3F)C(=O)[C@H]2C1 (relative stereo) [Example 10, rel-(3aR,6aR)-2-[1-(2-fluorophenyl)-1H-indazol-4-yl]-5-(tetrahydrofuran-2-ylacetyl)hexahydropyrrolo[3,4-c]pyrrol-1(2H)-one] | 74% | 2.07 µM | 59% | > 30 µM | – | –
CC(C)(O)CC(=O)N1CC[C@@H]2CN(c3cccc4c3cnn4-c3ccccc3F)C(=O)[C@@H]21 (single isomer, unassigned) [Example 1] | – | – | – | > 30 µM | 70% | 2.79 µM
CC(C)(O)CC(=O)N1CC[C@H]2CN(c3cccc4c3cnn4-c3ccccc3F)C(=O)[C@H]21 (single isomer, unassigned) [Example 2] | – | – | – | > 30 µM | 62% | 2.38 µM
CC(C)S(=O)(=O)N1C[C@@H]2CN(c3cccc4c3cnn4-c3ccccc3F)C(=O)[C@@H]2C1 [Example 24, (3aS,6aS)-2-[1-(2-fluorophenyl)-1H-indazol-4-yl]-5-(isopropylsulfonyl)hexahydropyrrolo[3,4-c]pyrrol-1 (2H)-one] | 66% | 1.98 µM | – | 17 µM | – | 0.59 µM
O=C(C1CCOC1)N1C[C@@H]2CN(c3cccc4c3cnn4-c3ccccc3F)C(=O)[C@@H]2C1 (stereo partly drawn) [Example 32, (3aR,6aS)-2-[1-(2-fluorophenyl)-1H-indazol-4-yl]-5-(tetrahydrofuran-3-ylcarbonyl)hexahydropyrrolo[3,4-c]pyrrol-1(2H)-one] | 9% | 1.69 µM | – | 7.43 µM | – | –
C[C@H](O)CC(=O)N1C[C@H]2CN(c3cccc4c3cnn4-c3ccccc3F)C(=O)[C@H]2C1 [Example 34, (3aS,6aR)-2-[1-(2-fluorophenyl)-1H-indazol-4-yl]-5-[(3S)-3-hydroxybutanoyl]hexahydropyrrolo[3,4-c]pyrrol-1(2H)-one] | – | 9.91 µM | 60% | > 30 µM | 85% | 8.36 µM
CC(C)(O)CC(=O)N1C[C@H]2CN(c3cccc4c3cnn4-c3ccccc3F)C(=O)[C@H]2C1 [Example 35, (3aS,6aR)-2-[1-(2-fluorophenyl)-1H-indazol-4-yl]-5-(3-hydroxy-3-methylbutanoyl)hexahydropyrrolo[3,4-c]pyrrol-1(2H)-one] | – | – | 40% | – | 99% | –
